In assay [1] the test system is CALU6. The assay is described as follows: Cell growth inhibition (CellTiter-Glo), NSCLC line CALU6. The format is cell-based. The conditions noted are these: CALU6 non-small cell lung cancer cell line, 4 days. The protocol:
(§1) Cell growth inhibitory activity of representative BET bromodomain degraders in representative non-small cell lung cancer cell lines was determined using the CellTiter-Glo® Luminescent Cell Viability Assay. Cells were seeded in 384-well white opaque cell culture plates at a density of 2,000 cells/well with serially diluted compounds and incubated at 37° C. in an atmosphere of 95% air and 5% CO2 for 4 days. Cell viability was determined using the CellTiter-Glo® Luminescent Cell Viability Assay Kit (Promega, Madison, Wis.) according to the manufacture's instruction. Briefly, a volume of CellTiter-Glo® Reagent equal to the volume of cell culture medium was added to each well, and then the plates were incubated at room temperature for 10-20 minutes. The luminescent signal was measured using a Tecan Infinite M1000 multimode microplate reader (Tecan, Morrisville, N.C.). The half maximal inhibitory concentration (IC50) was calculated using the GraphPad Prism 5 software (GraphPad Software, La Jolla, Calif.). Cpd. A is a BET bromodomain inhibitor, see U.S. Appl.
A general note: Cellular ATP, detected with luciferase, serves as a proxy for viable cell number.

In assay [2] the test system is MDA-MB-157. The experiment in a line: Cell growth inhibition (CellTiter-Glo), breast cancer line MDA-MB-157. In kind it is cell-based. The conditions noted are these: MDA-MB-157 breast cancer cell line, 4 days. The protocol: Cell growth inhibitory activity of representative BET bromodomain degraders in representative breast cancer cell lines was determined using the CellTiter-Glo® Luminescent Cell Viability Assay. SUM-52 and SUM-159 cell lines were established at the University of Michigan Comprehensive Cancer Center. All the other breast cancer cell lines were obtained from the ATCC (Manassas, Va.). Cells were seeded in 384-well cell culture plates at a density of 1,000-2,500 cells/well with serially diluted compounds and incubated at 37° C. in an atmosphere of 95% air and 5% CO2 for 4 days. Cell viability was determined using the CellTiter-Glo® Luminescent Cell Viability Assay Kit (Promega, Madison, Wis.) according to the manufacture's instruction. Briefly, a volume of CellTiter-Glo® Reagent equal to the volume of cell culture medium was added to each well, and then the plates were incubated at room temperature for 20-60 minutes. The luminescent signal was measured using a Tecan Infinite M1000 multimode microplate reader (Tecan, Morrisville, N.C.). The half maximal inhibitory concentration (IC50) was calculated using the GraphPad Prism 5 software (GraphPad Software, La Jolla, Calif.). “Thd” is thalidomide.

The test system of assay [3] is SW1463. The assay is described as follows: Cell growth inhibition (CellTiter-Glo), colon cancer line SW1463. In kind it is cell-based. The protocol: as §1, with “Appl. No. 62/121,637, having the following structure:” for “Appl.”
(§2) Cell growth inhibitory activity of representative BET bromodomain degraders in representative colon cancer cell lines, see Table 7, was determined as described in Example 17.

In assay [4] the test system is H508. The assay is described as follows: Cell growth inhibition (CellTiter-Glo), colon cancer line H508. In kind it is cell-based. On the procedure:
as §1, with “Appl. No. 62/121,637, having the following structure:” for “Appl.”
as §2

In assay [5] the test system is H2228. The assay is described as follows: Cell growth inhibition (CellTiter-Glo), NSCLC line H2228. The format is cell-based. The conditions noted are these: H2228 non-small cell lung cancer cell line, 4 days. The protocol:
as §1

The subject of assay [6] is SW403. The experiment in a line: Cell growth inhibition (CellTiter-Glo), colon cancer line SW403. The format is cell-based. The protocol: as §1, with “Appl. No. 62/121,637, having the following structure:” for “Appl.”
as §2

The test system of assay [7] is SKLU-1. The assay is described as follows: Cell growth inhibition (CellTiter-Glo), NSCLC line SKLU-1. The format is cell-based. Particulars: SKLU-1 non-small cell lung cancer cell line, 4 days. The protocol:
as §1

Assay [8] relates to SW48. The assay is described as follows: Cell growth inhibition (CellTiter-Glo), colon cancer line SW48. In kind it is cell-based. On the procedure:
as §1, with “Appl. No. 62/121,637, having the following structure:” for “Appl.”
as §2

Assay [9] relates to H1792. The experiment in a line: Cell growth inhibition (CellTiter-Glo), NSCLC line H1792. In kind it is cell-based. Particulars: H1792 non-small cell lung cancer cell line, 4 days. The protocol:
as §1

In assay [10] the test system is MDA-MB-231. The experiment in a line: Cell growth inhibition (CellTiter-Glo), MDA-MB-231. The format is cell-based, human. The conditions noted are these: Homo sapiens, MDA-MB-231, 96 h, MDA-MB-231 cells, 4 days. On the procedure: (§3) Cell growth inhibitory activity of representative BET bromodomain degraders was determined using CellTiter-Glo® Luminescent Cell Viability Assay. Cells were seeded in 384-well white opaque cell culture plates at a density of 2,000 cells/well with serially diluted compounds and incubated at 37° C. in an atmosphere of 95% air and 5% CO2 for 4 days. Cell viability was determined using the CellTiter-Glo® Luminescent Cell Viability Assay Kit (Promega, Madison, Wis.) according to the manufacture's instruction. Briefly, a volume of CellTiter-Glo® Reagent equal to the volume of cell culture medium was added to each well, and then the plates were incubated at room temperature for 10-20 minutes. The luminescent signal was measured using a Tecan Infinite M1000 multimode microplate reader (Tecan, Morrisville, N.C.). The half maximal inhibitory concentration (IC50) was calculated using the GraphPad Prism 5 software (GraphPad Software, La Jolla, Calif.).

Assay [11] has as its system MOLM-13. The assay is described as follows: Cell growth inhibition (CellTiter-Glo), MOLM-13. The format is cell-based. Particulars: Homo sapiens, MOLM-13, 96 h, MOLM-13 cells, 4 days. The protocol: as §3

Read-outs that look alike come from different tables or passages of the source.

With `Cc1sc2c(c1C)C(c1ccc(Cl)cc1)=N[C@@H](CC(=O)NCCCCNC(=O)COc1cccc3c1C(=O)N(C1CCC(=O)NC1=O)C3=O)c1nnc(C)n1-2` (stereo partly drawn) [dBET1, reference compound], the 50% inhibitory concentration (IC50) in assay [1] was above 5 µM; in assay [2] it was 1.17 µM; in [3], 2.73 ± 0.3 µM; in assay [4] it was above 5 µM; in [5], above 5 µM; in assay [6], above 5 µM. The figures for the concentration for half-maximal inhibition (IC50) in assay [7], in [8] and in [9] were above 5 µM, 2.78 µM and above 5 µM, respectively.

Consider `CCn1nc(C2CC2)cc1Nc1nc(COC)nc2[nH]c3cc(-c4c(C)noc4C)c(OC)cc3c12` [Cpd. A, reference compound], for which the IC50 was 0.63 µM in assay [1] (Homo sapiens, Calu-6, 96 h); 0.86 µM in [2] (Homo sapiens, 96 h); above 2.5 µM in assay [3] (Homo sapiens); 0.167 ± 0.09 µM in assay [4] (Homo sapiens, NCI-H508); 2.4 µM in assay [5] (Homo sapiens, NCI-H2228, 96 h); 0.102 ± 0.023 µM in assay [6] (Homo sapiens, SW-403). Moreover, the IC50 in [7] (Homo sapiens, SK-LU-1, 96 h) is 0.04 µM; in [8] (Homo sapiens) it was 0.0457 µM; in assay [9] (Homo sapiens, NCI-H1792, 96 h), 0.13 µM.

As to `CCn1nc(C2CC2)cc1Nc1nc(C(=O)NCCCOCCOCCOCCCNc2cccc3c2C(=O)N(C2CCC(=O)NC2=O)C3=O)nc2[nH]c3cc(-c4c(C)noc4C)c(OC)cc3c12` (stereo not drawn) [Cpd. No. 4], the IC50 in assay [1] (Homo sapiens, Calu-6, 96 h) was found to be 0.009 µM; in [2] (Homo sapiens, 96 h) it was 0.002 µM; in assay [3] (Homo sapiens), 0.031 ± 0.01 µM; in assay [4] (Homo sapiens, NCI-H508), 0.054 ± 0.03 µM; in assay [5] (Homo sapiens, NCI-H2228, 96 h) it was 0.174 µM; in [6] (Homo sapiens, SW-403) it was 0.042 ± 0.01 µM. Moreover, the IC50 in [10] came out at 0.0035 µM; in [7] (Homo sapiens, SK-LU-1, 96 h) it was 0.003 µM; in assay [8] (Homo sapiens) it was 0.006 µM; in [9] (Homo sapiens, NCI-H1792, 96 h), 0.048 µM; in [11], 0.0007 µM.

Take `CCn1nc(C2CC2)cc1Nc1nc(C(=O)NCCCCNc2cccc3c2C(=O)N(C2CCC(=O)NC2=O)C3=O)nc2[nH]c3cc(-c4c(C)noc4C)c(OC)cc3c12` (stereo not drawn) [Cpd. No. 9]: the IC50 in assay [1] (Homo sapiens, Calu-6, 96 h) stood at 0.033 µM; in assay [3] (Homo sapiens) it was 0.191 ± 0.03 µM; in assay [4] (Homo sapiens, NCI-H508) it was 0.41 ± 0.15 µM; in [5] (Homo sapiens, NCI-H2228, 96 h), 0.61 µM; in assay [6] (Homo sapiens, SW-403), 0.219 ± 0.19 µM; in [10], 0.0056 µM. In addition, the 50% inhibitory concentration (IC50) was determined as 0.011 µM in assay [7] (Homo sapiens, SK-LU-1, 96 h); 0.008 µM in [8] (Homo sapiens); 0.151 µM in assay [9] (Homo sapiens, NCI-H1792, 96 h); 0.0012 µM in [11].

For orientation: IC50 means the concentration that inhibits the measured activity by half.
